According to PubChem BioAssay (NCI):
Several values for one entry are separate records, joined by “and”; a condition that tells them apart may be missing. Equal values may be shown once.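 In this assay, cells in 96-well plates receive the compound at five concentrations for 48 hours. Endpoints are linearly interpolated between the surrounding concentrations. GI50 marks 50% less growth. At the TGI there is no net growth.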

What was measured:
Assay in all cases: NCI tumour cell line growth inhibition, 48 h
HCT-15 colon = test system: HCT-15 colon
HCC-2998 colon = test system: HCC-2998 colon
RXF 393 renal = test system: RXF 393 renal
UO-31 renal = test system: UO-31 renal
HOP-92 NSCLC = test system: HOP-92 NSCLC
CCRF-CEM leukemia = test system: CCRF-CEM leukemia
LOX IMVI melanoma = test system: LOX IMVI melanoma
HS 578T breast = test system: HS 578T breast
PC-3 prostate = test system: PC-3 prostate
SK-MEL-2 melanoma = test system: SK-MEL-2 melanoma

SMILES	GI50 (HCT-15 colon)	TGI (HCT-15 colon) [µM]	GI50 (HCC-2998 colon) [µM]	TGI (HCC-2998 colon) [µM]	GI50 (RXF 393 renal)	TGI (RXF 393 renal) [µM]	GI50 (UO-31 renal)	TGI (UO-31 renal) [µM]	GI50 (HOP-92 NSCLC)	TGI (HOP-92 NSCLC)	GI50 (CCRF-CEM leukemia) [µM]	TGI (CCRF-CEM leukemia) [µM]	GI50 (LOX IMVI melanoma)	TGI (LOX IMVI melanoma)	GI50 (HS 578T breast)	TGI (HS 578T breast) [µM]	GI50 (PC-3 prostate)	TGI (PC-3 prostate) [µM]	GI50 (SK-MEL-2 melanoma)	TGI (SK-MEL-2 melanoma) [µM]
Cc1nnc(C[C@@H]2C=C(c3ccc(Cl)cc3)c3ccccc3-n3c(C)nnc32)o1	0.461 µM	40.2	1.33	18.6	1.39 µM	18.9	0.0739 µM	44.4	1.96 µM	> 75.1 µM	8.6	> 94.1	0.4 µM	16 µM	0.578 µM	46.1	3.53 µM	> 100	10.2 µM	47.6
CCOC(=O)C1(CC(=O)O)CCCC1=O (stereo not drawn)		> 100				> 100		> 100		> 100 µM		> 100		> 100 µM		> 100		> 100		> 100
O=C(Nc1ccc(OS(=O)(=O)c2ccc(F)cc2)cc1)C12CC3CC(CC(C3)C1)C2	0.558 µM	> 100	> 28.2	> 100	3.15 µM	22.5	6.21 µM	> 100	3.45 µM	18.1 µM			> 27.5 µM	> 100 µM	5.9 µM	> 53.2	0.647 µM	> 100	12.9 µM	39.3
C[C@@H](C1CC[C@H]2[C@@H]3[C@@H]4O[C@@H]4[C@@]4(O)CC=CC(=O)[C@]4(C)[C@H]3C[C@H](O)[C@]12C)[C@H]1C[C@]2(C)O[C@]2(C)C(=O)O1 (stereo partly drawn)		> 100		> 100				> 100		> 100 µM		> 100		> 100 µM		> 100		> 100		> 100
Cc1cc2c(cc1Cl)SC(N(c1ccccc1Cl)S(=O)(=O)c1ccc(Br)s1)=NS2(=O)=O	15.5 µM	32.7	19.7	53.4			19.9 µM	62	6.62 µM	21.8 µM	25.8	82.1	12.1 µM	25.5 µM	18 µM	41.4	12.5 µM	29.7	12.8 µM	43.7
COc1ccc2[nH]c(Cl)c(/C=C3/C(=O)Nc4ccccc43)c2c1	0.611 µM	3.36			0.381 µM	6.92	0.878 µM	9.96	1.99 µM	4.09 µM	0.216	0.737	0.345 µM	11.3 µM	0.837 µM	4.31	0.676 µM	6.84	1.2 µM	> 30.8
O=C(NC1CCN(Cc2ccccc2)CC1)c1cc(-c2cccnc2)nc2ccc(Cl)cc12	4.57 µM	30.5	5.51	> 100	4.18 µM	19.4	4.24 µM	21.4					3.27 µM	17.2 µM	9.9 µM	39.4	6.16 µM	> 100		
CC(C)C[C@H](CC(=O)O)C(=O)N[C@@H](Cc1c[nH]c2ccccc12)C(=O)N[C@@H](C)c1ccccc1	> 25 µM	> 25	> 25	> 25	> 25 µM	> 25	> 25 µM	> 25			> 25	> 25	> 25 µM	> 25 µM	> 25 µM	> 25	> 25 µM	> 25	> 25 µM	> 25
CCN(C(=O)N1CCN(c2cc3c(cc2F)c(=O)c(C(=O)O)cn3C2CC2)CC1)c1nc(-c2ccccc2)cs1	2.9 µM	> 100	3.28	79.3	2.52 µM	8.88	2.31 µM	> 100	2.17 µM	7.53 µM			1.39 µM	9.09 µM	3.16 µM	25.9	2.74 µM	> 100	2.02 µM	4.64
CC(=O)N[C@H](C)[C@@H](O)[C@@H](C)[C@@H]1OC(=O)/C=C/C=C(C)\C=C\[C@]2(C)C[C@@H](NS(C)(=O)=O)C=C[C@@H]2/C=C(C)/C=C/[C@H]1C	0.0359 µM and 0.0337 µM	> 43.5		> 43.5	0.00352 µM and 0.00846 µM	31.1	0.00495 µM and 0.00725 µM	> 43.5	0.00126 µM and 0.00435 µM	0.0297 µM and 0.0256 µM			0.00271 µM and 0.00743 µM	0.00873 µM and 0.0148 µM	0.0158 µM and 0.0164 µM	> 43.5	0.00714 µM and 0.0129 µM	> 43.5	3.88 µM and 24.1 µM	> 43.5
CCCCCC/C=C/C#CCCCCCCCC(=O)O		> 100		> 100						> 100 µM		> 100		> 100 µM		> 100		> 100		> 100
Cc1cc(S(=O)(=O)/N=C(\N)Nc2cccc(O)c2)c(SCc2ccccc2)cc1Cl	18.6 µM	48	32.6	65.1	16.2 µM	39.9	10.8 µM	27.6	9.89 µM	36.3 µM			20.5 µM	66.8 µM	24.4 µM	82.9	12.1 µM	> 100	15.7 µM	34.9
CN1CCN(CCCOc2cccc3nc(Nc4cc(Cl)cc(Cl)c4)ccc23)CC1	1.42 µM	2.83	1.64	3.17	1.67 µM	3.22	1.49 µM	2.95	1.59 µM	4.82 µM					2.5 µM	7.07	1.76 µM	3.29	1.79 µM	3.54
O=C1/C(=C/c2cccnc2)SC(=S)N1Cc1ccco1		> 100				24.2		8.02		> 43.1 µM		14.5		> 100 µM		> 22.1		> 36.6		> 27.2
N#CCc1c(F)c(F)c(F)c(F)c1F		> 100		> 100		> 100		> 100				> 100		> 100 µM		> 100		> 100		
